The source made the active and inactive calls. The rule behind the calls is not given here.
Experiments:
Mus musculus [1] = assay: Antiarthritic activity in KRN passive serum-induced arthritis C57BL/6 mouse model assessed as reduction in proteoglycan loss at 0.1 to 10 mg/kg, po bid measured on day 7 at 2 hrs after first dose and 14 hrs after second dose; format: functional, organism-based; settings: dose 0.1-10 mg/kg, time 7.0 day
in vivo [2] = settings: Sprague-Dawley, rat, iv, 1 mg/kg
[3] = MRT in dog at 1 mg/kg, iv measured upto 24 hrs by LC-MS/MS analysis; format: ADME, organism-based, Canis lupus familiaris; settings: in vivo
[4] = Clearance in C57BL/6 mouse at 1 mg/kg, iv measured upto 24 hrs by LC-MS/MS analysis; format: ADME, organism-based; settings: in vivo
[5] = Metabolic stability in human hepatocyte assessed as intrinsic clearance; format: ADME, cell-based; settings: hepatocytes
[6] = Inhibition of arachidonic acid-stimulated LTB4 release in skin inflammation 129S2/SvPasCrl mouse model at 0.03 mg/kg, po pretreated with compound for 4 hrs followed by arachidonic acid stimulation and measured after 1 hr; format: functional; settings: time 5 hrs
[7] = Solubility of compound in FeSSIF at pH 6.8; format: physicochemical
[8] = Metabolic stability in rat hepatocyte assessed as intrinsic clearance; format: ADME, cell-based; settings: hepatocytes
[9] = biological target: T1, Leukotriene A-4 hydrolase (Homo sapiens, UniProt P09960); assay: Inhibition of LTA4H in human whole blood assessed as ionophore-stimulated LTB4 release preincubated for 15 mins by competitive immunoassay; format: tissue-based
T1 sequence (P09960 whole entry): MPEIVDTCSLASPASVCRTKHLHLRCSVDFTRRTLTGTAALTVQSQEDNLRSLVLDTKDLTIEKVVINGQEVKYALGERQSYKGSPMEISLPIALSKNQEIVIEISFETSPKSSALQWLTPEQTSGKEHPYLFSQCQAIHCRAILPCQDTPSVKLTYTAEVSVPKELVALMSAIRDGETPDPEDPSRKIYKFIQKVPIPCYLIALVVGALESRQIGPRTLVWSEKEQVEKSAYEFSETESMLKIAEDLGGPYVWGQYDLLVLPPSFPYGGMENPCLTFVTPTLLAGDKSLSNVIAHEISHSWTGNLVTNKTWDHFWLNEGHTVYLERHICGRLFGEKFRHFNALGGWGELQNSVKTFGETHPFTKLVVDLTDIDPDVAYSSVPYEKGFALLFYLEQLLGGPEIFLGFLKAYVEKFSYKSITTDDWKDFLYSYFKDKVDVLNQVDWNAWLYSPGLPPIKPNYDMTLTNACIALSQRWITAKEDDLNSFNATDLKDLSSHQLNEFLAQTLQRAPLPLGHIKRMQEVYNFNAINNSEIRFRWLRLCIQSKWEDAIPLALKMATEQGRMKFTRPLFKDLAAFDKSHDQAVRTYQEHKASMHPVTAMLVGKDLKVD

[10] = AUC (0 to infinity) in dog at 3 mg/kg, po measured upto 24 hrs by LC-MS/MS analysis; format: ADME, organism-based, Canis lupus familiaris; set-up: time < 24 hrs, dose 3 mg/kg, route po; settings: in vivo
[11] = Cmax in Wistar rat at 30 mg/kg, po measured upto 24 hrs by LC-MS/MS analysis; format: ADME, organism-based; set-up: time < 24 hrs, dose 30 mg/kg, route po; settings: in vivo
[12] = AUC (0 to infinity) in C57BL/6 mouse at 3 mg/kg, po measured upto 24 hrs by LC-MS/MS analysis; format: ADME, organism-based; set-up: time < 24 hrs, dose 3 mg/kg, route po; settings: in vivo
[13] = AUC (0 to infinity) in Wistar rat at 30 mg/kg, po measured upto 24 hrs by LC-MS/MS analysis; format: ADME, organism-based; set-up: dose 30 mg/kg, time < 24 hrs, route po; settings: in vivo
[14] = AUC (0 to infinity) in Wistar rat at 3 mg/kg, po measured upto 24 hrs by LC-MS/MS analysis; format: ADME, organism-based; set-up: time < 24 hrs, dose 3 mg/kg, route po; settings: in vivo
[15] = biological target: T1, Leukotriene A-4 hydrolase; assay: Inhibition of LTA4H (unknown origin) using Arg-AMC as substrate preincubated with compound for 15 mins followed by substrate addition and measured after every 10 mins for 300 mins by fluorescence based assay
in vivo [16] = settings: Sprague-Dawley, rat, iv, 1 mg/kg; remark: listed apart in the source
[17] = Inhibition of arachidonic acid-stimulated LTB4 release in skin inflammation 129S2/SvPasCrl mouse model at 0.3 mg/kg, po pretreated with compound for 4 hrs followed by arachidonic acid stimulation and measured after 1 hr; format: functional
[18] = Inhibition of calcium ionophore A23187-stimulated LTB4 release in C57BL/6 mouse model at 10 mg/kg, po bid measured after 2 hrs; format: functional
Mus musculus [19] = assay: Antiarthritic activity in KRN passive serum-induced arthritis C57BL/6 mouse model assessed as reduction in neutrophil numbers at 0.1 to 10 mg/kg, po bid measured on day 7 at 2 hrs after first dose and 14 hrs after second dose; format: functional, organism-based; settings: dose 0.1-10 mg/kg, time 7.0 day
[20] = Drug concentration in blood of arachidonic acid-induced skin inflammation 129S2/SvPasCrl mouse model at 3 mg/kg, po measured after 4 hrs; format: ADME, organism-based; settings: read-out: Ct
in vivo [21] = settings: Sprague-Dawley, rat, po, 3 mg/kg
[22] = Oral bioavailability in dog at 3 mg/kg measured upto 24 hrs by LC-MS/MS analysis; format: ADME, organism-based, Canis lupus familiaris; settings: in vivo
[23] = biological target: Voltage-gated inwardly rectifying potassium channel KCNH2 (Homo sapiens, UniProt Q12809)
[24] = Inhibition of calcium ionophore A23187-stimulated LTB4 release in C57BL/6 mouse model at 10 mg/kg, po bid measured after 24 hrs; format: functional
[25] = Volume of distribution at steady state in Wistar rat at 1 mg/kg, iv measured upto 24 hrs by LC-MS/MS analysis; format: ADME, organism-based; settings: in vivo, read-out: Vdss
[26] = Half life in dog at 1 mg/kg, iv measured upto 24 hrs by LC-MS/MS analysis; format: ADME, organism-based, Canis lupus familiaris; settings: in vivo

Chain of Voltage-gated inwardly rectifying potassium channel KCNH2 (Q12809 whole entry): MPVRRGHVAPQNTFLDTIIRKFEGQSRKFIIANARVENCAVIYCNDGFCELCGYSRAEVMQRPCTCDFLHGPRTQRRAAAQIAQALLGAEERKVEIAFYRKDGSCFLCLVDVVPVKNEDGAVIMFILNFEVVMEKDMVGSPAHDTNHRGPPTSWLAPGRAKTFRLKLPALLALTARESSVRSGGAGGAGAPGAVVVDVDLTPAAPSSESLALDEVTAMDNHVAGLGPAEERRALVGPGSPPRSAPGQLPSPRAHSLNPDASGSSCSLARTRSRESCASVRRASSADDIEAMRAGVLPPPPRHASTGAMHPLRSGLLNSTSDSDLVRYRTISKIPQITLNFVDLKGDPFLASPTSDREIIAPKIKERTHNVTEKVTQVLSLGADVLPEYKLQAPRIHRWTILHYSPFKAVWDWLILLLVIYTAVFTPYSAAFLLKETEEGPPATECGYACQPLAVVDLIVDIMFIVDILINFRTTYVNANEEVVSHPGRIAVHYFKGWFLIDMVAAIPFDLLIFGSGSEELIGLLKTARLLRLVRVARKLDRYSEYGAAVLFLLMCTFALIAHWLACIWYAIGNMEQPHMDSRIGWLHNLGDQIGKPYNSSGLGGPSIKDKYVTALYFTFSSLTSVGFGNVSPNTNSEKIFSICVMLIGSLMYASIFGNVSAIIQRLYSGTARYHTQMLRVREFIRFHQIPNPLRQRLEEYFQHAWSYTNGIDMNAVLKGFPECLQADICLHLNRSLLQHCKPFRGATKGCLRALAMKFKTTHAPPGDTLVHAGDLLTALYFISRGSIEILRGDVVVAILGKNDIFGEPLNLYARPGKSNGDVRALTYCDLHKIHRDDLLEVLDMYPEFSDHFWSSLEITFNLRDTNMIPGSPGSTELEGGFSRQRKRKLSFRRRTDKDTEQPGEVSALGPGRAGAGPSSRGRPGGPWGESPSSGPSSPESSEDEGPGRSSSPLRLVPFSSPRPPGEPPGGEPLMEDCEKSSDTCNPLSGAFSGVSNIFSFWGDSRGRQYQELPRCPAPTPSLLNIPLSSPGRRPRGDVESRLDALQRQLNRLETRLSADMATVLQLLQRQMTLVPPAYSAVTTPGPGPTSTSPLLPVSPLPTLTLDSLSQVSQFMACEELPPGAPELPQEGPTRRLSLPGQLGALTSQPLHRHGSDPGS

In the case of `N[C@H](CO)Cn1ccc(-c2ccc(Oc3ncc(-c4cc[nH]n4)cc3F)cc2)n1`, the Activity (Mus musculus [1]) is reported as “Active”, the concentration at 24 h (in vivo [2]) is reported as 32 nM and the MRT [3] is reported as 28 h. It also gave a clearance [4] of 7.5 mL/min/kg, a CLH [5] of less than 4 µL/min/mg and an inhibition in vivo at 0.03 mg/kg [6] of 74%. The solubility [7] was greater than 2000 µg/mL, the CLH [8] was 20 µL/min/mg and the IC50 [9] was 0.047 µM. For the same compound, the AUC(0-inf) [10] was 15 µM·h, the Cmax [11] was 5490 nM and the AUC(0-inf) [12] was 5.51 µM·h. The AUC(0-inf) [13] was 59.2 µM·h, the AUC(0-inf) [14] was 4.99 µM·h and the IC50 [15] was less than 0.003 µM. It also gave a bioavailability (in vivo [16]) of 57%, an inhibition in vivo at 0.3 mg/kg [17] of 93% and an inhibition in vivo at 10 mg/kg [18] of 95%. For the same compound, the Activity (Mus musculus [19]) was “Active”, the concentration at 4 h [20] was 367 nM and the AUC(0-inf) (in vivo [21]) was 3.87 µM·h. It also gave a bioavailability [22] of 39%, an IC50 [23] of 27 µM and an inhibition in vivo at 10 mg/kg [24] of 93%. For the same compound, the Vd [25] was 6.9 L/kg and the half-life [26] was 40 h.
